Drawing on US20070259895A1, “MGluR5 modulators VI” (AstraZeneca AB, priority 2006, published 2007), this text covers Kp and IC50 for one compound.

For orientation: IC50 means the concentration that gives 50% inhibition.

A short description of data set [1]: Determination of brain to plasma ratio in rat. Format: in vivo, female Sprague Dawley rats. The conditions noted are these: female, Sprague-Dawley, brain and plasma, read-out: Brain to Plasma Ratio of compound in Rat. The procedure: Brain to plasma ratios are estimated in female Sprague Dawley rats. The compound is dissolved in water or another appropriate vehicle. For determination of brain to plasma ratio the compound is administrated as a subcutaneous, or an intravenous bolus injection, or an intravenous infusion, or an oral administration. At a predetermined time point after the administration a blood sample is taken with cardiac puncture. The rat is terminated by cutting the heart open, and the brain is immediately retained. The blood samples are collected in heparinized tubes and centrifuged within 30 minutes, in order to separate the plasma from the blood cells. The plasma is transferred to 96-well plates and stored at −20° C. until analysis. The brains are divided in half, and each half is placed in a pre-tarred tube and stored at −20° C. until analysis. Prior to the analysis, the brain samples are thawed and 3 ml/g brain tissue of distilled water is added to the tubes. The brain samples are sonicated in an ice bath until the samples are homogenized. Both brain and plasma samples are precipitated with acetonitrile. After centrifugation, the supernatant is diluted with 0.2% formic acid. […] After reconstitution of the residuals the samples are ready for injection onto the HPLC column.

For another data set, the target named is T1, human mGluR5d (Homo sapiens, UniProt P41594).
T1 construct: expressed in transfected cells; The IP3 assay uses GHEK cells stably expressing human mGluR5d
The experiment in a line: FLIPR assay, mobilization of intracellular calcium in cells expressing mGluR5d. Type of data set: cell-based. An excerpt: The properties of the compounds of the invention can be analyzed using standard assays for pharmacological activity. Examples of glutamate receptor assays are well known in the art as described in for example Aramori et al, Neuron 8:757 (1992), Tanabe et al., Neuron 8:169 (1992), Miller et al., J. Neuroscience 15: 6103 (1995), Balazs, et al., J. Neurochemistry 69:151 (1997). The methodology described in these publications is incorporated herein by reference. Conveniently, the compounds of the invention can be studied by means of an assay (FLIPR) that measures the mobilization of intracellular calcium, [Ca^2+]i in cells expressing mGluR5 or another assay (IP3) that measures inositol phosphate turnover.
Cells expressing human mGluR5d as described in WO97/05252 are seeded at a density of 100,000 cells per well on collagen coated clear bottom 96-well plates with black sides and experiments are done 24 h following seeding. […] The fluorescence signal is sampled 50 times at 1 second intervals followed by 3 samples at 5 second intervals immediately after each of the two additions. Responses are measured as the difference between the peak height of the response to agonist, less the background fluorescence within the sample period. […]
(In general: Calcium assays in cells follow changes in intracellular calcium, usually with a dye or a luminescent sensor.)

T1 sequence (P41594 21-942 isoform P41594-3 limits assumed): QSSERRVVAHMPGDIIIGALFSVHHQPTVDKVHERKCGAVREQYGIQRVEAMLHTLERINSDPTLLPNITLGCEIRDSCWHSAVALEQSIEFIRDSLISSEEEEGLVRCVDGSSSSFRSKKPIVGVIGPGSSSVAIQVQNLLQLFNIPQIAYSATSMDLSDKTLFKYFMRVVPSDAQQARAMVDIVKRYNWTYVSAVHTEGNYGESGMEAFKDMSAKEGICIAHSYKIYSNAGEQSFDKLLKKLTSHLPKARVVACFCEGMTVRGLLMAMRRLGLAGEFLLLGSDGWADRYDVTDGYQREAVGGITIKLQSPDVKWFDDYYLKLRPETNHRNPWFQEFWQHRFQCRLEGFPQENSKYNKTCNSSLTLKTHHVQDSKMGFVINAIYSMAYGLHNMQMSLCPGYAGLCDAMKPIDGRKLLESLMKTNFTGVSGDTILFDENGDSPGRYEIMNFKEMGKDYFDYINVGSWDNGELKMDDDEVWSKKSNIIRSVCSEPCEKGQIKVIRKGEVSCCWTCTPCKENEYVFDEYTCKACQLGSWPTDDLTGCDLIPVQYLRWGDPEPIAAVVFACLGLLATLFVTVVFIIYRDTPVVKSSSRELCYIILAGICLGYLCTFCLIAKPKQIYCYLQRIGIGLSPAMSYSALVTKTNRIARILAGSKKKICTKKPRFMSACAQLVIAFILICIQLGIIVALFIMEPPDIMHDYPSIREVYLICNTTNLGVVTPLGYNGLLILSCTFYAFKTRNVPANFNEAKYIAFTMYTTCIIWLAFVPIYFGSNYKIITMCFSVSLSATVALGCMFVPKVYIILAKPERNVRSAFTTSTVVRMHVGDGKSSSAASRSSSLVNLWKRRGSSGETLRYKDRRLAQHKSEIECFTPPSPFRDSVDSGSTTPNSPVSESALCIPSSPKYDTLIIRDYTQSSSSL

In the case of `COc1cc(-c2nnc3n2CCCN3Cc2cc(-c3cccc(Cl)c3)on2)ccn1` [Example 11.2, 8-{[5-(3-Chlorophenyl)isoxazol-3-yl]methyl}-3-(2-methoxypyridin-4-yl)-5,6,7,8-tetrahydro[1,2,4]triazolo[4,3-a]pyrimidine], in data set [1], the Kp stood at 0.36. In addition, the IC50 on human mGluR5d was determined as 51 nM.
